{
  "source": "patent US20150290201A1",
  "about": "“TREATMENT OF MUSCULAR DYSTROPHIES AND ASSOCIATED CONDITIONS BY ADMINISTRATION OF MONOAMINE OXIDASE INHIBITORS” (UNIVERSITA DEGLI STUDI DI PADOVA, priority 2011, published 2015)",
  "key": {"MAO": {"test_system": "MAO", "test": "MAO activity assay (Amplex Red/HRP, tyramine) on muscle mitochondrial extracts after in vivo treatment", "conditions": "Col6a1−/− mice, gastrocnemius, pargyline 50 mg/kg/day i.p. for 1 week", "experimental": "Muscle cryosections were suspended in PBS and centrifuged at 500 g for 10 min at 4° C. The supernatant was centrifuged at 8000×g for 10 min at 4° C. and the resulting pellet was resuspended in PBS and stored on ice until use. Protein concentration was determined by the Bradford assay (Bio-Rad). MAO activity assay was based on the detection of hydrogen peroxide generated during substrate catabolism in a horseradish peroxidase (HRP) coupled reaction using 10-acetyl-3,7-dihydroxyphenoxazine (Amplex Red reagent, Molecular Probes). The mitochondrial protein extracts (40 mg) were incubated in PBS with 10 mM Amplex Red and 15 mg/ml HRP. […] The fluorescence intensity was recorded at 37° C. using a Perkin Elmer LS-50B fluorimeter at the 544/590 nm excitation/emission wavelengths. Parallel samples were run in the absence of a substrate to take into account the increase in fluorescence not due to MAO activity. […]"}, "Col6a1^−/− mice [1]": {"test_system": "Col6a1^−/− mice", "test": "DHE staining for ROS detection in muscle cryosections of Col6a1−/− mice", "format": "in vivo", "conditions": "6-month-old Col6a1−/− mice, pargyline 50 mg/kg/day i.p. 1 week", "description": "(§1) Col6a1^−/− mice were backcrossed in the inbred C57BL/6J strain for eight generations as described (Irwin, W. A., et al., (2003) Nat. Genet., 35, 367-371), and data were obtained by comparing Col6a1^−/− mice with their wild-type littermates. Wild-type C57BL/10 mice and mdx (in the C57BL/10 background) were obtained from Charles River and Jackson Laboratories, respectively. Pargyline (50 mg/kg/days) or vehicle (phosphate-buffered saline, PBS) were administered by daily intraperitoneal (i.p.) injection for 7 days in 6-month-old Col6a1^−/− and C57BL/6J male mice or 5-week-old mdx and C57BL/10 male mice. During the treatment, mice were placed in separate cages with a running wheel. At the end of the treatment, mice were sacrificed and muscles were removed and stored in liquid nitrogen until use.\nDHE is oxidized by ROS, forming ethidium bromide, which emits red fluorescence when intercalates with DNA (Benov, L., et al., (1998) Free Radic. Biol. Med., 25, 826-831). […] For the detection of the fluorescence, 568±25 nm excitation and 585 nm long-pass emission filter settings were used. Data were acquired and analyzed using Metamorph software (Universal Imaging). […]"}, "Col6a1^−/− mice [2]": {"test_system": "Col6a1^−/− mice", "test": "Pathological markers (TUNEL, IgG staining, Evans blue, myofiber CSA) in Col6a1−/− mice", "format": "in vivo", "conditions": "pargyline treatment", "description": "as §1\n(§2) Cross-sections (7 μm thick) were prepared and processed for hematoxylin and eosin (H&E) staining. For the morphometric analysis of myofiber cross sectional areas (CSAs), we counted approximately 2000 fibers per mouse for each muscle type by means of ImageJ software. At least three sections from each muscle were analyzed. TUNEL (terminal deoxynucleotidyl transferase-mediated dUTP nick end-labeling) was performed on paraffin-embedded sections (7 μm thick) using the ApopTag in situ apoptosis detection kit (Chemicon). Samples were stained with peroxidase diaminobenzidine to detect TUNEL-positive nuclei and counterstained with Hoechst 33258 to identify all nuclei, as described previously (Irwin, W. A., et al., (2003) Nat. Genet, 35, 367-371). The total number of nuclei and number of TUNEL-positive nuclei were determined in randomly selected fibers using a Zeiss Axioplan microscope equipped with a Leica DC 500 camera. Membrane permeability of skeletal muscle was directly visualized by immunohistochemical staining with IgG (Weller, B., et al., (1990) J. Neurol. Sci., 100, 9-13 and Blaauw, B., et al., (2008) Hum. Mol. Genet., 17, 3686-36%). Cryosections (10 μm thick) were incubated with anti-mouse fluorescein isothiocyanate-conjugated IgG, washed twice with PBS, mounted and visualized with an Olympus IMT-2 inverted microscope as previously described (Petronilli V., et al., (1999) Biophys. J., 76, 725-734) using excitation/emission cubes of 488/525±25 nm bandpass. Evans blue dye staining of muscles in vivo was performed by i.p. injection with 0.2 ml Evans blue (10 mg/ml in PBS; Sigma). Mice were sacrificed after 16-18 h and diaphragms were fixed with 4% paraformaldehyde overnight at 4° C. After fixation, the samples were observed by means of light microscopy.\nContractile impairment and high apoptosis rate are two specific features of skeletal muscles of Col6a1^−/− mice (Irwin, W. A., et al. (2003) Nat. Genet 35, 367-371). […] Occurrence of apoptosis was evaluated by TUNEL. […]"}, "Col6a1^−/− mice [3]": {"test_system": "Col6a1^−/− mice", "test": "Muscle functional assessment (skinned fiber tension, gastrocnemius force, running wheel) in Col6a1−/− mice", "format": "in vivo", "description": "as §1\nSingle myofibers were isolated from Col6a1^−/− gastrocnemius muscle, chemically skinned as described (Rossi, R., et al., (2001) Am. J. Physiol. Cell Physiol., 281, C585-0594) and tension was measured during maximal isometric activation (pCa=4.5, T=20° C., initial sarcomere length=2.75 μm). Force measurements were performed in the left and/or right gastrocnemius muscle of anesthetized mice by electrical stimulation through the sciatic nerve, as described previously (Blaauw, B., et al., (2008) Hum. Mol. Genet., 17, 3686-3696). Voluntary exercise was evaluated by placing a wheel in the cage. Before the treatment, mice were placed in separate cages with wheel to acclimatize, then the average distance covered by each mouse in 24 h during the treatment was measured using an automatic counter.\nBiochemical and histological analyses were paralleled by functional assessment of the contractile performance of muscles in vivo and isolated muscle fibers in vitro. Single-skinned muscle fibers dissected from gastrocnemius muscle were maximally calcium-activated at optimal sarcomere length. […] After acclimatizing mice for 1 week to a wheel placed in their cage, the daily average distance was measured."}, "mdx mice [4]": {"test_system": "mdx mice", "test": "Tm oxidation (DCB formation) by immunoelectrophoresis, mdx mice", "format": "in vivo", "conditions": "gastrocnemius and quadriceps, i.p. pargyline for 1 week", "description": "as §1\nProtein extracts were prepared as described (Canton, M., et al., (2006) Eur. Heart J., 27, 875-881). Immunoblotting were stained with the following antibodies: anti-Tm CH1 clone (Sigma), anti-MAO-B D-16 and anti-MAO-A H-70 clone (Santa Cruz). […] Quantitation of Tm oxidation was performed by densitometric analysis of the bands obtained under non-reducing conditions (ImageJ software). […] Data were expressed as percentage of DCB relative to vehicle-treated wild-type mice. […]"}, "mdx mice [5]": {"test_system": "mdx mice", "test": "MAO-dependent ROS formation in muscles of mdx mice", "format": "in vivo", "conditions": "mdx-parg mice (n = 8)", "description": "as §1\n(§3) DHE is oxidized by ROS, forming ethidium bromide, which emits red fluorescence when intercalates with DNA (Benov, L., et al., (1998) Free Radic. Biol. Med., 25, 826-831). […] For the detection of the fluorescence, 568±25 nm excitation and 585 nm long-pass emission filter settings were used. Data were acquired and analyzed using Metamorph software (Universal Imaging)."}, "Wild-type C57BL/10 mice": {"test_system": "Wild-type C57BL/10 mice", "test": "ROS formation in muscles of wild-type C57BL/10 mice", "format": "in vivo", "conditions": "WT-parg mice (n = 8); WT-veh = 100.0", "description": "as §1, §3"}, "Col6a1^−/− mice [6]": {"test_system": "Col6a1^−/− mice", "test": "Tm oxidation (DCB formation) by immunoelectrophoresis, Col6a1−/− mice", "format": "in vivo", "conditions": "Col6a1−/− diaphragm, pargyline 50 mg/kg/day i.p. 1 week"}, "mdx mice [7]": {"test_system": "mdx mice", "test": "Pathological markers (myofiber CSA, H&E inflammation, TUNEL) in mdx mice", "format": "in vivo", "conditions": "pargyline treatment", "description": "as §1\nas §2, with “Cryosections (10 μm thick) were incubated with anti-mouse fluorescein isothiocyanate-conjugated IgG, washed twice with PBS, mounted and visualized with an Olympus IMT-2 inverted microscope as previously described (Petronilli V., et al., (1999) Biophys. J., 76, 725-734) using excitation/emission cubes of 488/525±25 nm bandpass. Evans blue dye staining of muscles in vivo was performed by i.p. injection with 0.2 ml Evans blue (10 mg/ml in PBS; Sigma). Mice were sacrificed after 16-18 h and diaphragms were fixed with 4% paraformaldehyde overnight at 4° C. After fixation, the samples were observed by means of light microscopy.” left out"}, "Col6a1^−/− myoblasts": {"test_system": "Col6a1^−/− myoblasts", "test": "Mitochondrial ROS production (Mitotracker Red) in myoblasts under oxidative stress", "format": "cell-based, mice", "conditions": "Col6a1−/− diaphragm myoblasts, 100 uM pargyline; inducers 100 uM H2O2, 5 uM arachidonic acid, 0.2 uM antimycin", "description": "Myoblasts obtained from the diaphragm of Col6a1^−/− and Col6a1^+/+ mice were loaded with Mitotracker Red (MTR, 20 nM) to assess mitochondrial ROS production. After the first acquisition (with a fluorescence microscope), different inducers of oxidative stress (A: 100 uM H2O2, B: 5 uM arachidonic acid, C: 0.2 uM antimycin) were added and frames were collected at different intervals in the absence (filled square) and in the presence (filled triangles) of a MAO inhibitor (100 uM pargyline).\nThe extent of ROS accumulation in myoblasts obtained from diaphragm of Col6a1^−/− and Col6a1^+/+ mice was assessed. […] Remarkably, MAO inhibition reduced the presence of ROS in Col6a1^−/− myoblasts underlying the relevance of ROS production due to MAO activity."}},
  "data": [
    {"smiles": "C#CCN(C)Cc1ccccc1", "note": "[Pargyline, N-Benzyl-N-methylprop-2-yn-1-amine]", "values": [
      {"measurement": "MAO activity in skeletal muscle after treatment", "setting": "MAO", "value": "abolished"},
      {"measurement": "abnormal production of ROS (DHE fluorescence) in muscles", "setting": "Col6a1^−/− mice [1]", "value": "significantly decreased"},
      {"measurement": "damaged myofibers stained by Evans blue", "setting": "Col6a1^−/− mice [2]; Col6a1−/− diaphragm", "value": "largely reduced"},
      {"measurement": "number of damaged fibers positive to IgG immunohistochemical staining", "setting": "Col6a1^−/− mice [2]; Col6a1−/− diaphragm", "value": "significantly decreased"},
      {"measurement": "number of TUNEL-positive nuclei", "setting": "Col6a1^−/− mice [2]; Col6a1−/− mice, diaphragm sections, vehicle 62.4±2.3, wild-type 2.7±1.2", "value": "6.9±1", "unit": "nuclei/mm^2"},
      {"measurement": "myofiber cross-sectional area variability (different sizes, prevalence of small fibers)", "setting": "Col6a1^−/− mice [2]; Col6a1−/− tibialis anterior and diaphragm", "value": "markedly reduced"},
      {"measurement": "normalized force of gastrocnemius muscle in vivo", "setting": "Col6a1^−/− mice [3]; Col6a1−/− mice, pargyline treatment", "value": "significantly increased"},
      {"measurement": "voluntary exercise performance (running wheel, daily average distance)", "setting": "Col6a1^−/− mice [3]; Col6a1−/− mice, pargyline-treated versus untreated", "value": "significant improvement"},
      {"measurement": "contractile impairment (isometric tension of single-skinned fibers)", "setting": "Col6a1^−/− mice [3]; gastrocnemius fibers of pargyline-treated Col6a1−/− mice, maximal calcium activation", "value": "disappeared"},
      {"measurement": "oxidative modifications (Tm oxidation, DCB)", "setting": "mdx mice [4]", "value": "significantly decreased"},
      {"measurement": "ROS formation, Quadriceps", "setting": "mdx mice [5]; WT-veh = 100.0, mdx-veh 119.3 ± 1.3, in %", "value": "102.9 ± 1.5"},
      {"measurement": "ROS formation, Gastrocnemius", "setting": "mdx mice [5]; WT-veh = 100.0, mdx-veh 127.8 ± 9.0", "value": "105.6 ± 2.2"},
      {"measurement": "ROS formation, Gastrocnemius", "setting": "Wild-type C57BL/10 mice", "value": "102.8 ± 2.8"},
      {"measurement": "ROS formation, Quadriceps", "setting": "Wild-type C57BL/10 mice", "value": "96.9 ± 6.2"},
      {"measurement": "DCB content (Tm oxidation)", "setting": "Col6a1^−/− mice [6]", "value": "significantly reduced"},
      {"measurement": "number of TUNEL-positive nuclei (apoptosis)", "setting": "mdx mice [7]; diaphragm sections", "value": "significantly lower incidence"},
      {"measurement": "myofiber CSA fiber area distribution", "setting": "mdx mice [7]; gastrocnemius muscle", "value": "normalized the fiber area distribution"},
      {"measurement": "tissue inflammation in skeletal muscles (H&E)", "setting": "mdx mice [7]", "value": "reduce tissue inflammation"},
      {"measurement": "susceptibility to oxidative stress / mitochondrial ROS (Mitotracker Red)", "setting": "Col6a1^−/− myoblasts", "value": "reduced"}
    ]}
  ]
}
